The record followed here is paper PMC5218480 (PLoS ONE, 2017).

The subject of the test is MV-4-11 cells. The experiment in a line: Gene expression microarray analysis (Affymetrix PrimeView) and GSEA. Type of test: cell-based, human. Details: RFU PODN (11730768_x_at) / Fold change /veh PODN (11730768_x_at) / RFU LINC00158 (11744669_a_at) / Fold change /veh LINC00158 (11744669_a_at) / RFU DUSP10 (11751237_a_at) / Fold change /veh DUSP10 (11751237_a_at) / RFU ID3 (11757404_x_at) / Fold change /veh ID3 (11757404_x_at) / RFU PLEKHG5 (11737974_s_at) / Fold change /veh PLEKHG5 (11737974_s_at) / RFU LRRC4B (11730491_at) / Fold change /veh LRRC4B (11730491_at) / RFU GIMAP4 (11747438_a_at) / Fold change /veh GIMAP4 (11747438_a_at) / RFU KRT8 (11758183_x_at) / Fold change /veh KRT8 (11758183_x_at) / RFU CNN1 (11734310_a_at) / Fold change /veh CNN1 (11734310_a_at) / RFU VPS37D (11726825_at) / Fold change /veh VPS37D (11726825_at) / RFU C10orf10 (11716522_x_at) / Fold change /veh C10orf10 (11716522_x_at) / RFU KIR2DL2 /// KIR2DL4 /// KIR2DL5A /// KIR2DL5B /// KIR2DS1 /// KIR2DS2 /// KIR2DS3 /// KIR2DS4 /// KIR3DL3 /// KIR3DL3 /// KIR3DS1 (11738374_at) / Fold change /veh KIR2DL2 /// KIR2DL4 /// KIR2DL5A /// KIR2DL5B /// KIR2DS1 /// KIR2DS2 /// KIR2DS3 /// KIR2DS4 /// KIR3DL3 /// KIR3DL3 /// KIR3DS1 (11738374_at) / RFU C1QL1 (11718748_at) / Fold change /veh C1QL1 (11718748_at) / RFU TMPRSS4 (11747572_a_at) / Fold change /veh TMPRSS4 (11747572_a_at) / RFU HAMP (11756126_x_at) / Fold change /veh HAMP (11756126_x_at) / RFU RNFT2 (11725882_a_at) / Fold change /veh RNFT2 (11725882_a_at) / RFU NR4A2 (11747474_a_at) / Fold change /veh NR4A2 (11747474_a_at) / RFU ABCC12 (11746883_a_at) / Fold change /veh ABCC12 (11746883_a_at) / RFU TMEM136 (11760407_x_at) / Fold change /veh TMEM136 (11760407_x_at) / RFU CLDN22 /// WWC2 (11732394_at) / Fold change /veh CLDN22 /// WWC2 (11732394_at) / RFU HLA-DPB1 (11760878_x_at) / Fold change /veh HLA-DPB1 (11760878_x_at) / RFU SPINT1 (11716480_a_at) / Fold change /veh SPINT1 (11716480_a_at) / RFU GAP43 (11754022_s_at) / Fold change /veh GAP43 (11754022_s_at) / RFU A4GNT (11735810_at) / Fold change /veh A4GNT (11735810_at) / RFU PRB3 (11715151_x_at) / Fold change /veh PRB3 (11715151_x_at) / RFU TUBB4B (11761932_at) / Fold change /veh TUBB4B (11761932_at) / RFU CAPN14 (11732068_a_at) / Fold change /veh CAPN14 (11732068_a_at) / RFU TMCC2 (11721928_a_at) / Fold change /veh TMCC2 (11721928_a_at) / RFU IRGQ (11745062_a_at) / Fold change /veh IRGQ (11745062_a_at) / RFU FAM174B (11720279_a_at) / Fold change /veh FAM174B (11720279_a_at) / RFU TMPRSS4 (11748680_a_at) / Fold change /veh TMPRSS4 (11748680_a_at) / RFU FAM212B (11763350_a_at) / Fold change /veh FAM212B (11763350_a_at) / RFU PLEKHG5 (11743358_a_at) / Fold change /veh PLEKHG5 (11743358_a_at) / RFU ZSCAN30 (11745921_a_at) / Fold change /veh ZSCAN30 (11745921_a_at) / RFU CMKLR1 (11741424_a_at) / Fold change /veh CMKLR1 (11741424_a_at) / RFU LOC101060620 /// MAPK8IP1 (11723275_at) / Fold change /veh LOC101060620 /// MAPK8IP1 (11723275_at) / RFU SPTSSB (11747773_x_at) / Fold change /veh SPTSSB (11747773_x_at) / RFU PRSS12 (11739890_at) / Fold change /veh PRSS12 (11739890_at) / RFU BIN1 (11741810_x_at) / Fold change /veh BIN1 (11741810_x_at) / RFU WNT11 (11732464_a_at) / Fold change /veh WNT11 (11732464_a_at) / RFU C10orf10 (11716521_a_at) / Fold change /veh C10orf10 (11716521_a_at) / RFU C5orf56 (11738089_at) / Fold change /veh C5orf56 (11738089_at) / RFU CYB561 (11721691_x_at) / Fold change /veh CYB561 (11721691_x_at) / RFU ANKRD19P (11752326_a_at) / Fold change /veh ANKRD19P (11752326_a_at) / RFU OR2T12 /// OR2T33 /// OR2T8 (11738714_s_at) / Fold change /veh OR2T12 /// OR2T33 /// OR2T8 (11738714_s_at) / RFU VCAN (11748164_a_at) / Fold change /veh VCAN (11748164_a_at) / RFU JSRP1 (11732532_at) / Fold change /veh JSRP1 (11732532_at) / RFU KRTAP10-11 (11738290_x_at) / Fold change /veh KRTAP10-11 (11738290_x_at) / RFU MYO3A (11730013_a_at) / Fold change /veh MYO3A (11730013_a_at) / RFU EBF3 (11725865_a_at) / Fold change /veh EBF3 (11725865_a_at) / RFU CAMK2N1 (11719241_x_at) / Fold change /veh CAMK2N1 (11719241_x_at) / RFU C5orf56 (11738088_a_at) / Fold change /veh C5orf56 (11738088_a_at) / RFU OLFML3 (11715873_a_at) / Fold change /veh OLFML3 (11715873_a_at) / RFU LOC100653217 /// NTM (11731650_a_at) / Fold change /veh LOC100653217 /// NTM (11731650_a_at) / RFU MAPK11 (11762145_a_at) / Fold change /veh MAPK11 (11762145_a_at) / RFU FIZ1 (11724087_x_at) / Fold change /veh FIZ1 (11724087_x_at) / RFU OASL (11726364_x_at) / Fold change /veh OASL (11726364_x_at) / RFU SOX15 (11748057_x_at) / Fold change /veh SOX15 (11748057_x_at) / RFU CD79A (11719716_a_at) / Fold change /veh CD79A (11719716_a_at) / RFU HIST1H1D (11736915_at) / Fold change /veh HIST1H1D (11736915_at) / RFU CASKIN2 (11723855_a_at) / Fold change /veh CASKIN2 (11723855_a_at) / RFU LOC730098 (11760151_x_at) / Fold change /veh LOC730098 (11760151_x_at) / RFU OR4N2 (11742367_at) / Fold change /veh OR4N2 (11742367_at) / RFU PRRT2 (11749266_a_at) / Fold change /veh PRRT2 (11749266_a_at) / RFU SNX32 (11753110_a_at) / Fold change /veh SNX32 (11753110_a_at) / RFU CDHR5 (11726645_a_at) / Fold change /veh CDHR5 (11726645_a_at) / RFU RCAN1 (11760418_a_at) / Fold change /veh RCAN1 (11760418_a_at) / RFU FAM167A (11723789_a_at) / Fold change /veh FAM167A (11723789_a_at) / RFU FAM26E (11764081_at) / Fold change /veh FAM26E (11764081_at) / RFU ISYNA1 (11749810_s_at) / Fold change /veh ISYNA1 (11749810_s_at) / RFU ACY1 (11761880_at) / Fold change /veh ACY1 (11761880_at) / RFU 11764098_at / Fold change /veh 11764098_at / RFU SAMD14 (11745864_x_at) / Fold change /veh SAMD14 (11745864_x_at) / RFU NPB (11741838_a_at) / Fold change /veh NPB (11741838_a_at) / RFU TMPRSS6 (11731388_a_at) / Fold change /veh TMPRSS6 (11731388_a_at) / RFU KRTAP10-2 (11738614_at) / Fold change /veh KRTAP10-2 (11738614_at) / RFU ARHGAP8 /// PRR5-ARHGAP8 (11727945_x_at) / Fold change /veh ARHGAP8 /// PRR5-ARHGAP8 (11727945_x_at) / RFU KRTAP5-7 /// NADSYN1 (11734609_at) / Fold change /veh KRTAP5-7 /// NADSYN1 (11734609_at) / RFU RASL12 (11751679_a_at) / Fold change /veh RASL12 (11751679_a_at) / RFU CDKN2B (11736163_a_at) / Fold change /veh CDKN2B (11736163_a_at) / RFU PRF1 (11729649_at) / Fold change /veh PRF1 (11729649_at) / RFU, ZNF638 /// ZNF638-IT1 / Fold change vs veh, ZNF638 /// ZNF638-IT1 / RFU, PANK3 / Fold change vs veh, PANK3 / RFU, SH3YL1 / Fold change vs veh, SH3YL1 / RFU, ZEB2 / Fold change vs veh, ZEB2 / RFU, NRIP1 / Fold change vs veh, NRIP1 / RFU, PTTG1IP / Fold change vs veh, PTTG1IP / RFU, CAPN2 / Fold change vs veh, CAPN2 / RFU, MED14 / Fold change vs veh, MED14 / RFU, SNORA58 / Fold change vs veh, SNORA58 / RFU, C1orf63 / Fold change vs veh, C1orf63 / RFU, LRRFIP1 / Fold change vs veh, LRRFIP1 / RFU, NDUFAF7 / Fold change vs veh, NDUFAF7 / RFU, SLC12A2 / Fold change vs veh, SLC12A2 / RFU, IBTK / Fold change vs veh, IBTK / RFU, ESF1 / Fold change vs veh, ESF1 / Fold change vs veh, TMEM50B / RFU, TAOK1 / Fold change vs veh, TAOK1 / RFU, ACBD3 / Fold change vs veh, ACBD3 / RFU, TMA16 / Fold change vs veh, TMA16 / RFU, RWDD3 / Fold change vs veh, RWDD3 / RFU, BCAT1 / Fold change vs veh, BCAT1 / RFU, EDEM3 / Fold change vs veh, EDEM3 / RFU, TMEM33 / Fold change vs veh, TMEM33 / RFU, WDR75 / Fold change vs veh, WDR75 / RFU, AHCTF1 / Fold change vs veh, AHCTF1 / RFU, TFRC / Fold change vs veh, TFRC / RFU, ZDHHC17 / Fold change vs veh, ZDHHC17 / RFU, NOM1 / Fold change vs veh, NOM1 / RFU, ARL8B / Fold change vs veh, ARL8B / RFU, ZBTB11 / Fold change vs veh, ZBTB11 / RFU, TAMM41 / Fold change vs veh, TAMM41 / RFU, KIAA1704 /// LOC100996395 / Fold change vs veh, KIAA1704 /// LOC100996395 / RFU, ING1 / Fold change vs veh, ING1 / RFU, TRMT61B / Fold change vs veh, TRMT61B / RFU, FUBP3 / Fold change vs veh, FUBP3 / RFU, TP53 / Fold change vs veh, TP53 / RFU, TNKS2 / Fold change vs veh, TNKS2 / RFU, ZFP14 / Fold change vs veh, ZFP14 / RFU, ACTR2 / Fold change vs veh, ACTR2 / RFU, PPP3R1 / Fold change vs veh, PPP3R1 / RFU, PIK3R1 / Fold change vs veh, PIK3R1 / RFU, HNRNPA1 / Fold change vs veh, HNRNPA1 / RFU, RNF170 / Fold change vs veh, RNF170 / RFU, ZNF28 / Fold change vs veh, ZNF28 / RFU, RNGTT / Fold change vs veh, RNGTT / RFU, OGT / Fold change vs veh, OGT / RFU, BRD1 / Fold change vs veh, BRD1 / RFU, MARS / Fold change vs veh, MARS / RFU, ZNF655 / Fold change vs veh, ZNF655 / RFU, FAHD1 / Fold change vs veh, FAHD1 / RFU, BDP1 / Fold change vs veh, BDP1 / RFU, LRRCC1 / Fold change vs veh, LRRCC1 / RFU, ARID1A / Fold change vs veh, ARID1A / RFU, ZNF146 / Fold change vs veh, ZNF146 / RFU, ZNF330 / Fold change vs veh, ZNF330 / RFU, GPN3 / Fold change vs veh, GPN3 / RFU, C9orf123 / Fold change vs veh, C9orf123 / RFU, N4BP2L2 / Fold change vs veh, N4BP2L2 / RFU, ARFIP1 / Fold change vs veh, ARFIP1 / RFU, FAM179B / Fold change vs veh, FAM179B / RFU, BCL10 / Fold change vs veh, BCL10 / RFU, UHRF1BP1L / Fold change vs veh, UHRF1BP1L / RFU, BET1 / Fold change vs veh, BET1 / RFU, CNOT2 / Fold change vs veh, CNOT2 / RFU, ZNF268 / Fold change vs veh, ZNF268 / Fold change vs veh, ZNF507 / RFU, DGCR2 / Fold change vs veh, DGCR2 / RFU, WDSUB1 / Fold change vs veh, WDSUB1 / Fold change vs veh, HSP90B1 /// MIR3652 / RFU, ADSS / Fold change vs veh, ADSS / RFU, GK / Fold change vs veh, GK / RFU, ZNF148 / Fold change vs veh, ZNF148 / RFU, TAF9 / Fold change vs veh, TAF9 / RFU, SLC1A5 / Fold change vs veh, SLC1A5 / RFU, SLMO2 / Fold change vs veh, SLMO2 / RFU, ABCC4 / Fold change vs veh, ABCC4 / RFU, LOC101060439 /// RAP1B / Fold change vs veh, LOC101060439 /// RAP1B / RFU, RFX7 / Fold change vs veh, RFX7 / RFU, GTPBP10 / Fold change vs veh, GTPBP10 / RFU, CNEP1R1 / Fold change vs veh, CNEP1R1 / RFU, BIVM-ERCC5 /// ERCC5 / Fold change vs veh, BIVM-ERCC5 /// ERCC5 / RFU, ILF3 / Fold change vs veh, ILF3 / RFU 11762660_at / Fold change /veh 11762660_at / RFU VCAN (11757783_s_at) / Fold change /veh VCAN (11757783_s_at) / RFU DDX43 (11728927_at) / Fold change /veh DDX43 (11728927_at) / RFU KRT8 (11758188_x_at) / Fold change /veh KRT8 (11758188_x_at) / RFU NKD1 (11759106_at) / Fold change /veh NKD1 (11759106_at) / RFU SRD5A1 (11742802_a_at) / Fold change /veh SRD5A1 (11742802_a_at) / RFU TPSAB1 /// TPSB2 (11721975_s_at) / Fold change /veh TPSAB1 /// TPSB2 (11721975_s_at) / RFU GSTM3 (11746129_a_at) / Fold change /veh GSTM3 (11746129_a_at) / RFU IL23R (11737362_x_at) / Fold change /veh IL23R (11737362_x_at) / RFU TMEM51 (11727254_a_at) / Fold change /veh TMEM51 (11727254_a_at) / RFU PIWIL2 (11732686_x_at) / Fold change /veh PIWIL2 (11732686_x_at) / RFU ORM1 (11744905_x_at) / Fold change /veh ORM1 (11744905_x_at) / RFU CCDC152 (11743942_at) / Fold change /veh CCDC152 (11743942_at) / RFU ECM1 (11717891_a_at) / Fold change /veh ECM1 (11717891_a_at) / RFU IL23R (11748794_a_at) / Fold change /veh IL23R (11748794_a_at) / RFU TNFAIP8L3 (11732012_x_at) / Fold change /veh TNFAIP8L3 (11732012_x_at) / RFU MBOAT4 (11741988_at) / Fold change /veh MBOAT4 (11741988_at) / RFU 11764193_at / Fold change /veh 11764193_at / RFU TMEM53 (11763286_at) / Fold change /veh TMEM53 (11763286_at) / RFU MAGEB2 (11727129_at) / Fold change /veh MAGEB2 (11727129_at) / RFU TMEM200A (11744735_a_at) / Fold change /veh TMEM200A (11744735_a_at) / RFU CCDC152 (11751479_a_at) / Fold change /veh CCDC152 (11751479_a_at) / RFU FAM211A (11726209_a_at) / Fold change /veh FAM211A (11726209_a_at) / RFU RGS16 (11746705_a_at) / Fold change /veh RGS16 (11746705_a_at) / RFU VCAN (11755009_s_at) / Fold change /veh VCAN (11755009_s_at) / RFU RHOB (11743442_s_at) / Fold change /veh RHOB (11743442_s_at) / RFU RGS16 (11720943_a_at) / Fold change /veh RGS16 (11720943_a_at) / RFU RGS16 (11720944_at) / Fold change /veh RGS16 (11720944_at) / RFU, VPS4B / Fold change vs veh, VPS4B / RFU, CREB1 / Fold change vs veh, CREB1 / RFU, DNAJC13 / Fold change vs veh, DNAJC13 / RFU, GNAQ / Fold change vs veh, GNAQ / RFU, CDK5R1 / Fold change vs veh, CDK5R1 / RFU, ZRANB3 / Fold change vs veh, ZRANB3 / RFU, CUL4A / Fold change vs veh, CUL4A / RFU, CCNY / Fold change vs veh, CCNY / RFU, UFL1 / Fold change vs veh, UFL1 / RFU, COG3 / Fold change vs veh, COG3 / RFU, DIAPH2 / Fold change vs veh, DIAPH2 / RFU, SKA2 / Fold change vs veh, SKA2 / RFU, AFF3 / Fold change vs veh, AFF3 / RFU, LMF1 / Fold change vs veh, LMF1 / RFU, IPO11 / Fold change vs veh, IPO11 / RFU, DFFB / Fold change vs veh, DFFB / RFU, FOXP1 / Fold change vs veh, FOXP1 / RFU, CARD8 / Fold change vs veh, CARD8 / RFU, STRN3 / Fold change vs veh, STRN3 / RFU, ADK / Fold change vs veh, ADK / RFU, RASSF2 / Fold change vs veh, RASSF2 / RFU, WIPF1 / Fold change vs veh, WIPF1 / RFU, LARP1B / Fold change vs veh, LARP1B / RFU, RASA1 / Fold change vs veh, RASA1 / RFU, RB1 / Fold change vs veh, RB1 / RFU, PPFIA1 / Fold change vs veh, PPFIA1 / RFU, MAT2A / Fold change vs veh, MAT2A / RFU, CCT5 / Fold change vs veh, CCT5 / RFU, WDR92 / Fold change vs veh, WDR92 / RFU, CUX1 / Fold change vs veh, CUX1 / RFU, TTC7A / Fold change vs veh, TTC7A / RFU, TMEM135 / Fold change vs veh, TMEM135 / RFU, DEPTOR / Fold change vs veh, DEPTOR / RFU, CPM / Fold change vs veh, CPM / RFU, DNAJB6 / Fold change vs veh, DNAJB6 / RFU, CACNA2D3 / Fold change vs veh, CACNA2D3 / RFU, DTX4 / Fold change vs veh, DTX4 / RFU, TFCP2 / Fold change vs veh, TFCP2 / RFU, GMCL1 /// GMCL1P1 / Fold change vs veh, GMCL1 /// GMCL1P1 / RFU, AEBP2 / Fold change vs veh, AEBP2 / RFU, SNHG1 /// SNORD22 /// SNORD25 /// SNORD26 /// SNORD27 /// SNORD28 /// SNORD29 /// SNORD31 / Fold change vs veh, SNHG1 /// SNORD22 /// SNORD25 /// SNORD26 /// SNORD27 /// SNORD28 /// SNORD29 /// SNORD31 / Fold change (Aza/veh), C12orf56 (ProbeSet 11735607_a_at) / Fold change (ACY-1035/veh), C12orf56 (ProbeSet 11735607_a_at) / Fold change (Aza/veh), FGFR1OP (ProbeSet 11751329_s_at) / Fold change (ACY-1035/veh), FGFR1OP (ProbeSet 11751329_s_at) / Fold change (Aza/veh), VPS36 (ProbeSet 11739960_a_at) / Fold change (ACY-1035/veh), VPS36 (ProbeSet 11739960_a_at) / RFU SYPL1 (11715823_x_at) / Fold change /veh SYPL1 (11715823_x_at) / RFU IGFBP7 (11715501_s_at) / Fold change /veh IGFBP7 (11715501_s_at) / RFU REEP3 (11722064_at) / Fold change /veh REEP3 (11722064_at) / RFU IGLL1 (11728026_x_at) / Fold change /veh IGLL1 (11728026_x_at): dose or concentration left out as unconfirmed. The note with it: MV-4-11 cells, 48 hours.

The structures appear in SMILES notation.

In the case of `Nc1ncn([C@@H]2O[C@H](CO)[C@@H](O)[C@H]2O)c(=O)n1` [azacitidine], the “RFU ECM1 (11717891_a_at)” value is 24.53 RFU.
